From patent US10570168B2, “2′ and/or 5′ amino-acid ester phosphoramidate 3′-deoxy adenosine derivatives as anti- cancer compounds” (NuCana plc, priority 2014, dated 2020)
pIC50: −log10 of the molar value. Where two headings read alike, the source gives them in different places.

Assays:
Format in all cases: cell-based
MCF-7 = experiment: CellTiterGlo viability assay, initial screening; conditions: Homo sapiens, read-out: IC50 (relative IC50)
Method: (§1) In vitro viability assays were performed to assess the effects of compounds on cell viability in 7 selected cell lines over 72 hr using the CellTiterGlo (CTG, Promega-G7573) assay. The tests were performed in duplicates with treatment of compounds at 9 points, 3.16 folds titration in 96 well plates over ˜72 hr. The compound starting concentrations were […]. Cell viability assay using CellTiterGlo in 96-well plate were performed. The compound treatment was 72 hrs, under standard growth conditions, and in duplicate. Compounds were dissolved to 40 mM with thawed […]. Compounds were serially diluted at 3.16 fold in thawed DMSO, and warmed to 37° C. before being dissolved in media (2 μl+200 μl). After compounds were dissolved in media (media was also warmed to 37° C.). Media containing compounds were warmed to 37° C. in incubator and then compounds in media were added to cell plates (50 μl+50 μl), in duplicates. The compounds final concentrations were from […] to 19.9 nM. All compound solubilities were checked and recorded again, then the plates were transferred to CO2 tissue culture incubator immediately and incubated for 3 days. DMSO final concentration is 0.5%.

HepG2 = experiment: CellTiterGlo viability assay, initial screening; conditions: Homo sapiens, read-out: IC50 (relative IC50)
Method: as §1

CCRF-CEM = experiment: CellTiterGlo viability assay, initial screening; conditions: Homo sapiens, read-out: IC50 (relative IC50)
Method: as §1

MOLT-4 [1] = experiment: CellTiterGlo viability assay, initial screening; conditions: Homo sapiens, read-out: IC50 (relative IC50)
Method: as §1

K562 [2] = experiment: CellTiterGlo viability assay, initial screening; conditions: Homo sapiens, read-out: IC50 (relative IC50)
Method: as §1

KG-1 [3] = experiment: CellTiterGlo viability assay, initial screening; conditions: Homo sapiens, read-out: IC50 (relative IC50)
Method: as §1

HL-60 = experiment: CellTiterGlo viability assay, initial screening; conditions: Homo sapiens, read-out: IC50 (relative IC50)
Method: as §1

MOLT-4 [4] = experiment: Solid tumour and haematological malignancy assay (CellTiterGlo); conditions: Homo sapiens; for pIC50: read-out: IC50 (absolute IC50); for Emax: read-out: MI %
Method: (§2) In vitro viability assay were performed to assess the effects of compounds on cell viability in selected cell lines over 72 hr using the CellTiterGlo (CTG, Promega-G7573) assay. The tests were performed in duplicates with treatment of compounds at 9 points, 3.16 folds titration in 96 well plates over ˜72 hr. The compound starting concentrations were 198 mM. Cell viability assay using CellTiterGlo in 96-well plate were performed. Compound treatment 72 hrs, standard growth conditions, duplicates. Compounds were dissolved to 40 mM with thawed […]. Compounds were serially diluted at 3.16 fold in thawed DMSO, and warmed to 37° C. before being dissolved in media (20 μl+200 μl). After compounds were dissolved in media, media containing compounds were warmed to 37° C. in incubator and then compounds in media were added to cell plates ([…]) in duplicates. The compounds' final concentrations were from 198M to 19.9 nM. All compound solubilities were checked and recorded again, then the plates were transferred to CO2 tissue culture incubator immediately and incubated for 3 days. DMSO final concentration is 0.5%.

RL = experiment: as above; conditions: Homo sapiens; for pIC50: read-out: IC50 (absolute IC50); for Emax: read-out: MI %
Method: as §2

NCI-H929 = experiment: as above; conditions: Homo sapiens; for pIC50: read-out: IC50 (absolute IC50); for Emax: read-out: MI %
Method: as §2

CCRFCEM = experiment: as above; conditions: Homo sapiens, CCRF-CEM; for pIC50: read-out: IC50 (absolute IC50); for Emax: read-out: MI %
Method: as §2, with “The tests were performed in duplicates with treatment of compounds at 9 points, 3.16 folds titration in 96 well plates over ˜72 hr. The compound starting concentrations were 198 mM.” left out, “Compounds were serially diluted at 3.16 fold in thawed DMSO, and warmed to 37° C. before being dissolved in media (20 μl+200 μl).” left out, “The compounds' final concentrations were from 198M to 19.9 nM.” left out

HT29 = experiment: as above; conditions: Homo sapiens; for pIC50: read-out: IC50 (absolute IC50); for Emax: read-out: MI %
Method: as §2, with “The tests were performed in duplicates with treatment of compounds at 9 points, 3.16 folds titration in 96 well plates over ˜72 hr. The compound starting concentrations were 198 mM.” left out, “Compounds were serially diluted at 3.16 fold in thawed DMSO, and warmed to 37° C. before being dissolved in media (20 μl+200 μl).” left out, “The compounds' final concentrations were from 198M to 19.9 nM.” left out

K562 [5] = experiment: as above; conditions: Homo sapiens; for pIC50: read-out: IC50 (absolute IC50); for Emax: read-out: MI %
Method: as §2, with “The tests were performed in duplicates with treatment of compounds at 9 points, 3.16 folds titration in 96 well plates over ˜72 hr. The compound starting concentrations were 198 mM.” left out, “Compounds were serially diluted at 3.16 fold in thawed DMSO, and warmed to 37° C. before being dissolved in media (20 μl+200 μl).” left out, “The compounds' final concentrations were from 198M to 19.9 nM.” left out

KG-1 [6] = experiment: as above; conditions: Homo sapiens; for pIC50: read-out: IC50 (absolute IC50); for Emax: read-out: MI %
Method: as §2, with “The tests were performed in duplicates with treatment of compounds at 9 points, 3.16 folds titration in 96 well plates over ˜72 hr. The compound starting concentrations were 198 mM.” left out, “Compounds were serially diluted at 3.16 fold in thawed DMSO, and warmed to 37° C. before being dissolved in media (20 μl+200 μl).” left out, “The compounds' final concentrations were from 198M to 19.9 nM.” left out

MCF7 = experiment: as above; conditions: Homo sapiens; for pIC50: read-out: IC50 (absolute IC50); for Emax: read-out: MI %
Method: as §2, with “The tests were performed in duplicates with treatment of compounds at 9 points, 3.16 folds titration in 96 well plates over ˜72 hr. The compound starting concentrations were 198 mM.” left out, “Compounds were serially diluted at 3.16 fold in thawed DMSO, and warmed to 37° C. before being dissolved in media (20 μl+200 μl).” left out, “The compounds' final concentrations were from 198M to 19.9 nM.” left out

| SMILES | pIC50 (MCF-7; MCF7, 72 h) | pIC50 (HepG2; HepG2, 72 h) | pIC50 (CCRF-CEM; 72 h) | pIC50 (MOLT-4 [1]; MOLT-4, 72 h) | pIC50 (K562 [2]; K562, 72 h) | pIC50 (KG-1 [3]; KG-1, 72 h) | pIC50 (HL-60; HL-60, 72 h) | pIC50 (MOLT-4 [4]; MOLT-4, 72 h) | pIC50 (RL; 72 h) | pIC50 (NCI-H929; NCI-H929, 72 h) | pIC50 (CCRFCEM; 72 h) | pIC50 (HT29; HT-29, 72 h) | pIC50 (K562 [5]; K562, 72 h) | pIC50 (KG-1 [6]; KG-1, 72 h) | pIC50 (MCF7; MCF7, 72 h) | further results |
| --- | --- | --- | --- | --- | --- | --- | --- | --- | --- | --- | --- | --- | --- | --- | --- | --- |
| C[C@H](NP(=O)(N[C@@H](C)C(=O)OCc1ccccc1)OC[C@@H]1CC(O)[C@H](n2cnc3c(N)ncnc32)O1)C(=O)OCc1ccccc1 (stereo in doubt) [Compound J, Benzyl 2-[({[5-(6-amino-9H-purin-9-yl)-4-hydroxyoxolan-2-yl]methoxy}({[1-(benzyloxy)-1-oxopropan-2-yl]amino})phosphoryl)amino]propanoate] |  |  |  |  |  |  |  |  |  |  |  |  |  |  |  | pIC50 (MCF-7; MCF7, MCF-7, 72 hr): 4.00 to 4.82; pIC50 (HepG2; HepG2, 72 hr): 4.00 to 4.82; pIC50 (CCRF-CEM; 72 hr): 4.00 to 4.82; pIC50 (MOLT-4 [1]; MOLT-4, 72 hr): 5.30 to 7.00; pIC50 (K562 [2]; K562, 72 hr): 4.00 to 4.82; pIC50 (KG-1 [3]; KG-1, 72 hr): 4.00 to 4.82; pIC50 (HL-60; HL-60, 72 hr): 4.00 to 4.82 |
| COc1nc(N)c2ncn([C@@H]3O[C@H](CO)C[C@H]3O)c2n1 [2-OMe-Cordycepin, 3′-deoxy-2-methoxyadenosine, reference compound] |  |  |  |  |  |  |  |  |  |  |  |  |  |  |  | pIC50 (MOLT-4 [4]; MOLT-4, 72 hr): < 4.00; Emax (MOLT-4 [4]; MOLT-4, 72 hr): 1%; pIC50 (RL; 72 hr): < 4.00; Emax (RL; 72 hr): 0%; pIC50 (NCI-H929; NCI-H929, 72 hr): < 4.00; Emax (NCI-H929; NCI-H929, 72 hr): 51%; pIC50 (CCRFCEM; CCRFCEM, 72 hr): < 4.00; Emax (CCRFCEM; CCRFCEM, 72 hr): -4%; pIC50 (HT29; HT-29, HT29, 72 hr): < 4.00; Emax (HT29; HT-29, HT29, 72 hr): 19%; pIC50 (K562 [5]; K562, 72 hr): < 4.00; Emax (K562 [5]; K562, 72 hr): 40%; pIC50 (KG-1 [6]; KG-1, 72 hr): < 4.00; Emax (KG-1 [6]; KG-1, 72 hr): 1%; pIC50 (MCF7; MCF7, 72 hr): < 4.00; Emax (MCF7; MCF7, 72 hr): 8% |
| C[C@H](NP(=O)(Oc1cccc2ccccc12)O[C@@H]1C[C@@H](CO)O[C@H]1n1cnc2c(N)ncnc21)C(=O)OCc1ccccc1 (stereo partly drawn) [Compound I, (2S)-benzyl 2-(((((2R,3R,5S)-2-(6-amino-9H-purin-9-yl)-5-(hydroxymethyl)tetrahydro-furan-3-yl)oxy)(naphthalen-1-yloxy)phosphoryl)amino)propanoate] | 4.82 to 5.30 | 4.00 to 4.82 | 4.00 to 4.82 | 4.00 to 4.82 | 4.00 to 4.82 | 4.00 to 4.82 | 4.00 to 4.82 |  |  |  |  |  |  |  |  |  |
| CCCCCOC(=O)[C@H](CC(C)C)NP(=O)(OC[C@@H]1C[C@H](O)[C@H](n2cnc3c(N)nc(OC)nc32)O1)Oc1cccc2ccccc12 (stereo partly drawn) [Compound M] |  |  |  |  |  |  |  | 4.82 to 5.30 | 4.82 to 5.30 | 4.82 to 5.30 | 4.82 to 5.30 | 4.00 to 4.82 | 4.82 to 5.30 | 4.00 to 4.82 | 4.00 to 4.82 | Emax (MOLT-4 [4]; MOLT-4, 72 h): 101%; Emax (RL; 72 h): 100%; Emax (NCI-H929; NCI-H929, 72 h): 99%; Emax (CCRFCEM; 72 h): 100%; Emax (HT29; HT-29, 72 h): 100%; Emax (K562 [5]; K562, 72 h): 100%; Emax (KG-1 [6]; KG-1, 72 h): 102%; Emax (MCF7; MCF7, 72 h): 100% |
| CCCCCCOC(=O)[C@H](C)NP(=O)(OC[C@@H]1C[C@H](O)[C@H](n2cnc3c(N)nc(OC)nc32)O1)Oc1ccccc1 (stereo partly drawn) [Compound N, 2-O-methyl-3′-deoxyadenosine-5′-O-[phenyl(1-hexyloxy-L-alaninyl)] phosphate] |  |  |  |  |  |  |  | 4.00 to 4.82 | 4.00 to 4.82 | 4.00 to 4.82 | 4.00 to 4.82 | 4.00 to 4.82 | 4.00 to 4.82 | 4.00 to 4.82 | 4.00 to 4.82 | Emax (MOLT-4 [4]; MOLT-4, 72 h): 97%; Emax (RL; 72 h): 88%; Emax (NCI-H929; NCI-H929, 72 h): 99%; Emax (CCRFCEM; 72 h): 93%; Emax (HT29; HT-29, 72 h): 69%; Emax (K562 [5]; K562, 72 h): 78%; Emax (KG-1 [6]; KG-1, 72 h): 96%; Emax (MCF7; MCF7, 72 h): 73% |
| C[C@H](NP(=O)(Oc1ccccc1)O[C@@H]1C[C@@H](CO)O[C@H]1n1cnc2c(N)ncnc21)C(=O)OCc1ccccc1 (stereo partly drawn) [G, (2S)-benzyl 2-(((((2R,3R,5S)-2-(6-amino-9H-purin-9-yl)-5-(hydroxymethyl)tetrahydro-furan-3-yl)oxy)(phenoxy)phosphoryl)amino)propanoate] | 4.82 to 5.30 | 4.00 to 4.82 | 4.00 to 4.82 | 4.00 to 4.82 | 4.00 to 4.82 | 4.00 to 4.82 | 4.00 to 4.82 |  |  |  |  |  |  |  |  |  |
| C[C@H](NP(=O)(OC[C@@H]1C[C@@H](OP(=O)(N[C@@H](C)C(=O)OCc2ccccc2)Oc2ccccc2)[C@H](n2cnc3c(N)ncnc32)O1)Oc1ccccc1)C(=O)OCc1ccccc1 (stereo partly drawn) [H, Benzyl 2-(((((2S,4R,5R)-5-(6-amino-9H-purin-9-yl)-4-((((1-(benzyloxy)-1-oxopropan-2-yl)amino)(phenoxy)phosphoryl)oxy)tetrahydrofuran-2-yl)methoxy)(phenoxy)phosphoryl)-amino)propanoate] | 5.30 to 7.00 | 4.82 to 5.30 | 4.00 to 4.82 | 4.00 to 4.82 | 4.00 to 4.82 | 4.00 to 4.82 | 4.00 to 4.82 |  |  |  |  |  |  |  |  |  |
| COc1nc(N)c2ncn([C@@H]3O[C@H](COP(=O)(N[C@@H](C)C(=O)OCc4ccccc4)Oc4cccc5ccccc45)C[C@H]3O)c2n1 (stereo partly drawn) [K] |  |  |  |  |  |  |  | 4.00 to 4.82 | 4.00 to 4.82 | 4.82 to 5.30 | 4.82 to 5.30 | 4.00 to 4.82 | 4.00 to 4.82 | 4.00 to 4.82 | 4.82 to 5.30 |  |
